According to US20140249139A1, “Quinazoline Derivatives” (NOVARTIS AG, priority 2011, published 2014):

Experiments:
PI3K alpha = target: T1, PI3K alpha (Homo sapiens, UniProt P42336); assay: Enzymatic PI3K alpha isoform inhibition (lipid kinase activity, Kinase-Glo); format: biochemical; conditions: enzymatic assay
T1 construct: for the p110-a subunit (with a deletion of the first 20 amino acids) are generated; His tag (C); made in house; host or cells: baculovirus BV1075; Tn5 (Trichoplusia ni) or TiniPro insect cells
T1 sequence (P42336 with tags, fused parts or gaps limits assumed, species assumed): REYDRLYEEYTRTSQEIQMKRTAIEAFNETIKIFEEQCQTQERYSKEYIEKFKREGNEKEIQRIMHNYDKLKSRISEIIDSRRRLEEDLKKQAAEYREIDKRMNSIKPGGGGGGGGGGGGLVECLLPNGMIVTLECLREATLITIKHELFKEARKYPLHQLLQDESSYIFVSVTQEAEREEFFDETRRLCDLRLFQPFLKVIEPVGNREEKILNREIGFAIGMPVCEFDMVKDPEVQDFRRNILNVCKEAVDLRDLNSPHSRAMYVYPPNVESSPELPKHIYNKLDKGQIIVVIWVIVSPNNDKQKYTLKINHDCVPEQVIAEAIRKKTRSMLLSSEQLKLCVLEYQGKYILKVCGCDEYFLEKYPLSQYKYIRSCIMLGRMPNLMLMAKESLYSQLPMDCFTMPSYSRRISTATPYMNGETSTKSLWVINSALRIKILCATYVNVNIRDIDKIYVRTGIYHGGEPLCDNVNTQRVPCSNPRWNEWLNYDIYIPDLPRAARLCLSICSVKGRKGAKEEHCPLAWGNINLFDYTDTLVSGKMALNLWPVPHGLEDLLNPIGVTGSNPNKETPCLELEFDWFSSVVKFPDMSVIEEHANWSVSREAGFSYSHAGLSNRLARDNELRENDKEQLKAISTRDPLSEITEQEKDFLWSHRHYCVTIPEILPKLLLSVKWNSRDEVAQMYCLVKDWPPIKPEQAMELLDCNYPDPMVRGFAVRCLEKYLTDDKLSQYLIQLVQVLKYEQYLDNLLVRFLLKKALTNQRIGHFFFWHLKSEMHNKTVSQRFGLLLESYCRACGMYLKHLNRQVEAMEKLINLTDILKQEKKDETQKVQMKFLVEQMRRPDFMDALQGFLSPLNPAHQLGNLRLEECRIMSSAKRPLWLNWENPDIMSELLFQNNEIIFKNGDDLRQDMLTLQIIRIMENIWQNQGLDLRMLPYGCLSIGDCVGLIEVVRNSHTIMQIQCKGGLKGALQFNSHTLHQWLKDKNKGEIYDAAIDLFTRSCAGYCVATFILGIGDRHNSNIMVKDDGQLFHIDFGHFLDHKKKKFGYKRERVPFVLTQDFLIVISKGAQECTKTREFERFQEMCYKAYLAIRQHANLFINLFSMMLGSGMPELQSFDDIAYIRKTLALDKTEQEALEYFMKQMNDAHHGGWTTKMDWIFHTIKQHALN
In short: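 Reactions were started with ATP (2 μM solution) after the enzyme (10 nM solution) and phosphatidylinositol substrate (5 μg/ml solution) were added to the DMSO-dissolved compounds.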

PI3K delta = target: T2, PI3K delta (Homo sapiens, UniProt O00329); assay: Cellular PI3K delta inhibition: PKB Ser473 phosphorylation in Rat1 cells expressing myr-HA-p110 delta; format: cell-based, rat; conditions: 1 h incubation, read-out: Cell PI3Kd/ IC50
T2 construct: myristylation signal (myr) (N); HA tag (N); expressed in transfected cells; host or cells: Rat1 cells, stably transfected
T2 sequence (O00329 1-1044): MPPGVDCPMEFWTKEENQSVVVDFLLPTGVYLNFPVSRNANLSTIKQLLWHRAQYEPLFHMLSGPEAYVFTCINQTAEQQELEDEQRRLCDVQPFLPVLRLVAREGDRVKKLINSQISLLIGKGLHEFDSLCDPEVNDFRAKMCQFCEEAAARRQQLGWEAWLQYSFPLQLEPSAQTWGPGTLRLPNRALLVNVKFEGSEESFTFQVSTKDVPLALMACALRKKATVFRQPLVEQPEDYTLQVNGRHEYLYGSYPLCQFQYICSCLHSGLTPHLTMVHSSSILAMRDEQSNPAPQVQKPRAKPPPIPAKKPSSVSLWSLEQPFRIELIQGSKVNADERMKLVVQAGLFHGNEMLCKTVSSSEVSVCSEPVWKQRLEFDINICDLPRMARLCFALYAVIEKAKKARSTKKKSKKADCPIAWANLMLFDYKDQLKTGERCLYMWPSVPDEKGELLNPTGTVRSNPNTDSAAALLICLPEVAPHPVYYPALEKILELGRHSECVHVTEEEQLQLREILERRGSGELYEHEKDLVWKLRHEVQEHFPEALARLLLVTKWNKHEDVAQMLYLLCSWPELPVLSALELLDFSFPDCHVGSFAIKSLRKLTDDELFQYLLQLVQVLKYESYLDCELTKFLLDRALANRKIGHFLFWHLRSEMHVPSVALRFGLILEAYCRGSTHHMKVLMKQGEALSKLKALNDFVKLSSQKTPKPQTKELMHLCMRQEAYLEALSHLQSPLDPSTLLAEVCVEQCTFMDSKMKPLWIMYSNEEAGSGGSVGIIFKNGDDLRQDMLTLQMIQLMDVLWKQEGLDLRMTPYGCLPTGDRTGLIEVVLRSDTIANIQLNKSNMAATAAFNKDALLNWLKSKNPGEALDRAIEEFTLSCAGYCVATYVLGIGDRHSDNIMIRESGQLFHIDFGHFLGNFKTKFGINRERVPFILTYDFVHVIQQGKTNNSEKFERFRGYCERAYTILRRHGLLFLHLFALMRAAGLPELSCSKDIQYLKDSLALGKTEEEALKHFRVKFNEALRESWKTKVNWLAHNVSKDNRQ
Protocol: The compounds tested were prepared as 10 mM stock solutions in DMSO (Merck, #8.02912.2500). Test compounds were prepared in 384 well plates (Greiner PP-Microplate, #781201) in 3-fold serial dilutions in 90% DMSO (Merck, #8.02912.2500) with 8 concentrations starting at 2 mM. Test compounds were prediluted (1:400) in two subsequent 1:20 dilution steps (5 μl+95 μl) from the master plate into starving medium in 384 well plates using a MATRIX PlateMate 2×2 pipettor (384 well-head). 25 μl/well of this 1:400 dilution were then added to the cell culture plate.
The Rat1-myr-HA-p110 alpha, beta and delta cells were trypsinized and counted with a CASY TT cell counter (Schärfe System GmbH, Reutlingen Germany). Rat1 cells expressing myr-HA-p110 alpha, beta and delta were seeded in 384-well plates at 15,000 cells per well in 50 μl/well complete medium and incubated for 20 h at 37° C., 5% CO2 until the cell layers reached 80-90% confluency. […] in 384 well plates using a MATRIX PlateMate 2×2 pipettor (384 well-head). 25 μl/well of this 1:400 dilution were then added to the cell culture plate.
Untreated cells were used as low controls, cells stimulated in absence of compounds were used as high controls. After an incubation of 1 h with compounds, cells were lysed by addition of 15 μl 3× lysis buffer (provided as 5× solution with the SureFire kit) enriched with 0.72% BSA, yielding a total volume of 45 μl cell lysate per well. Cell lysates were either used immediately of stored frozen (in sealed plates) at −20° C. until use. 5 μl of each lysate were transferred to Proxy-plates and mixed with Surefire beads, reaction buffer (containing the appropriate antibodies), activation buffer and dilution buffer according to the instructions of the supplier, yielding a total volume of 12 μl per well (the total final BSA conc. in the assay was 0.1%). After 2 h incubation (with shaking) in the dark at RT, light emission was measured using the EnVision Reader (Perkin Elmer). The difference between high and low controls was taken as 100% and compound effects were expressed as percent inhibition. IC50 values were determined from the dose response curves by graphical extrapolation.

SMILES	IC50 (PI3K alpha) [nM]	IC50 (PI3K delta) [nM]
COc1ccc(-c2ccc3ncnc(-c4cc(F)cc(C(=O)N5CCN(C(C)=O)CC5)c4)c3c2)cn1 [Example 110, 1-(4-{3-Fluoro-5-[6-(6-methoxy-pyridin-3-yl)-quinazolin-4-yl]-benzoyl}-piperazin-1-yl)-ethanone]	366	103
COc1ncc(-c2ccc3ncnc(-c4cccc(C(=O)N5CCN(C)CC5)c4)c3c2)cn1 [Example 2]	779	27.5
COc1ccc(-c2ccc3ncnc(-c4cncc(C(=O)N5CCNC(C)(C)C5)c4)c3c2)cc1C(F)(F)F [Example 81, (3,3-Dimethyl-piperazin-1-yl)-{5-[6-(4-methoxy-3-trifluoromethyl-phenyl)-quinazolin-4-yl]-pyridin-3-yl}-methanone]	401	19.5
COc1ccc(-c2ccc3ncnc(-c4cccc(C(=O)N5C[C@@H]6C[C@H]5CN6C)c4)c3c2)cn1 [Example 91, {3-[6-(6-Methoxy-pyridin-3-yl)-quinazolin-4-yl]-phenyl}-((1S,4S)-5-methyl-2,5-diaza-bicyclo[2.2.1]hept-2-yl)-methanone]	146	32.3
COc1ccc(-c2ccc3ncnc(-c4cccc(C(=O)N5CCN(C(C)=O)CC5)c4)c3c2)cc1S(=O)(=O)N1CCCC1 [Example 7]	712	83
COc1ccc(-c2ccc3ncnc(-c4ccc(C)c(C(=O)N5CC6CC5CN6C)c4)c3c2)cn1 (centres unmarked) [Example 117]	238	43
CNc1ncc(-c2ccc3ncnc(-c4cncc(C(=O)N5CCN(C)CC5)c4)c3c2)cc1C [Example 75, {5-[6-(5-Methyl-6-methylamino-pyridin-3-yl)-quinazolin-4-yl]-pyridin-3-yl}-(4-methyl-piperazin-1-yl)-methanone]	320	14
